Measured values from paper PMC10695101 (Molecular and cellular endocrinology, 2023).

Test system: androgen receptor α (ARα)
Test: Gal4DBD-LBD/UAS luciferase transactivation assay in U-2 OS cells
Assay type: cell-based, Apteronotus albifrons

Structure (SMILES)	EC50
C[C@]12CC(=O)[C@H]3[C@@H](CCC4=CC(=O)CC[C@@]43C)[C@@H]1CC[C@@H]2O [11-KT]	10 nM
